Structures are written as SMILES.

From ChEMBL document CHEMBL4680115, “Discovery of the programmed cell death-1/programmed cell death-ligand 1 interaction inhibitors bearing an indoline scaffold” (Eur J Med Chem, 2020) come the findings set out here.

Data set [1] addresses T1, Programmed cell death protein 1/Programmed cell death 1 ligand 1 (Homo sapiens, UniProt Q15116+Q9NZQ7). As to the kind of experiment: Inhibition of PD-1/PDL1 interaction (unknown origin) by HTRF assay. Format: protein-complex assay. (Time-resolved FRET reads energy transfer from a long-lived donor to a nearby acceptor.)
The subject of another data set is Jurkat. Kind of data set: Cytotoxicity against human Jurkat T cells assessed as reduction in cell viability measured after 72 hrs by CCK-8 assay. Format: cell-based. To be noted: for Activity: human, jurkat, time 72 hrs; for EC50: Homo sapiens, Jurkat.
The target in data set [2] is T1, Programmed cell death protein 1/Programmed cell death 1 ligand 1. Kind of data set: Inhibition of PD1/PDL1 protein-protein interaction in human PBMC-derived CD3-positive T cells co-cultured with human Hep3B cells expressing human PDL1/OS-8 assessed as increase in IFNgamma secretion measured after 72 hrs. The conditions noted are these: dose 0.31-20 µM.
The target is the same in data set [3]. As to the kind of experiment: Inhibition of PD1/PDL1 protein-protein interaction in human PBMC-derived CD3-positive T cells co-cultured with human Hep3B cells expressing human PDL1/OS-8 assessed as increase in IFNgamma secretion at 20 uM measured after 72 hrs. Also noted: scale not given: the % may be the effect or the level left.
Data set [4] shares this target. As to the kind of experiment: Inhibition of PD1/PDL1 protein-protein interaction in human PBMC-derived CD3-positive T cells co-cultured with human Hep3B cells expressing human PDL1/OS-8 assessed as increase in IFNgamma secretion at 5 uM measured after 72 hrs relative to BMS-1.

T1 sequence (Q15116 whole entry): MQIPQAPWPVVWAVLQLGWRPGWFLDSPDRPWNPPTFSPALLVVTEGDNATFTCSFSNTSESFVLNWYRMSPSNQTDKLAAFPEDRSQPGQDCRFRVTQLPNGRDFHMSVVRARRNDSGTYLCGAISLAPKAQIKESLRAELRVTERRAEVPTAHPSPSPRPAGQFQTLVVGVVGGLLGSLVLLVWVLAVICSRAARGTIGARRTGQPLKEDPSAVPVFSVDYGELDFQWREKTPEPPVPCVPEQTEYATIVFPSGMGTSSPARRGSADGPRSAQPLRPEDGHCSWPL
T1 sequence (Q9NZQ7 whole entry): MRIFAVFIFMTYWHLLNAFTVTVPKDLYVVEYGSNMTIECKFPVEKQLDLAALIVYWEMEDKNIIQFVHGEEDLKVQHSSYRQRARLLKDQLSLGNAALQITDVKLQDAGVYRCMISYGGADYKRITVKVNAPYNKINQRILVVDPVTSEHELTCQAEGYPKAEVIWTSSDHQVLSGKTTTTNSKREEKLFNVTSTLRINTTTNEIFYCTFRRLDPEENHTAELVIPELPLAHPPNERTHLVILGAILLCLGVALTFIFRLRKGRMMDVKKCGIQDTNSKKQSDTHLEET

Consider `O=C(c1ccc(CNCCO)cc1Cl)N1CCc2c(-c3ccccc3)cccc21`, for which the concentration for half-maximal inhibition (IC50) in data set [1] is more than 10000 nM.

In data set [1], `CC(=O)NCCNCc1cccc(C(=O)N2CCc3c(-c4ccccc4)cccc32)c1` displayed a concentration for half-maximal inhibition (IC50) of 745 nM. In data set [1], `COc1cc(C(=O)N2CCc3c(-c4ccccc4)cccc32)ccc1CN1CCC[C@H]1CO` returned an IC50 of 620 nM. The compound `O=C(c1ccc(CNCCO)c(Cl)c1)N1CCc2c(-c3ccccc3)cccc21` had a concentration for half-maximal inhibition (IC50) in data set [1] of 353 nM.

With `COc1cc(C(=O)N2CCc3c(-c4ccccc4)cccc32)ccc1CN1CCCC[C@@H]1C(=O)O`, in data set [1], it took 1060 nM to reach half-maximal inhibition (IC50). In data set [1], `CC(=O)NCCNCc1ccc(C(=O)N2CCc3c(-c4ccccc4)cccc32)c(Cl)c1` showed an IC50 of more than 10000 nM. `CC(=O)NCCNCc1ccc(C(=O)N2CCc3c(-c4ccccc4)cccc32)cc1Cl` gave a 50% inhibitory concentration (IC50) in data set [1] of 589 nM. The compound `CC(=O)NCCNCc1ccc(C(=O)N2CCc3c(-c4ccccc4)cccc32)cc1` had a half-inhibitory concentration (IC50) in data set [1] of 622 nM. The same measure, in the same setting: next, `CC(=O)NCCNCc1ccc(C(=O)N2CCc3c(-c4ccccc4)cccc32)cc1C`: 457 nM; `COc1cc(C(=O)N2CCc3c(-c4ccccc4)cccc32)cc(OC)c1CNCCNC(C)=O`: 7260 nM. Compound `COc1cc(C(=O)N2CCc3c(-c4ccccc4)cccc32)ccc1CN[C@H](CO)C(=O)O` gave an IC50 in data set [1] of 278 nM. Regarding `CC(=O)NCCNCc1ccc(C(=O)N2CCc3c(-c4ccccc4)cccc32)cc1O`, in data set [1], it took 602 nM to reach half-maximal inhibition (IC50). As for `COCCNCc1ccc(C(=O)N2CCc3c(-c4ccccc4)cccc32)cc1OC`, the IC50 in data set [1] worked out at 350 nM.

In data set [1], `COc1cc(C(=O)N2CCc3c(-c4ccc5c(c4)OCCO5)cccc32)ccc1CNCCO` returned an IC50 of 225 nM. Besides, the Activity entry in the data set on Jurkat is on record as “Toxic”.

Take `COc1cc(C(=O)N2CCc3c(-c4ccc5c(c4)OCCO5)cccc32)ccc1CNCCNC(C)=O`: in data set [1], inhibition was half-maximal at 416 nM (IC50). Consider `CC(=O)NCCNCc1ccc(C(=O)N2CCc3c(-c4ccccc4)cccc32)cc1OCc1cccc(C#N)c1`, for which the 50% inhibitory concentration (IC50) in data set [1] came out at 1060 nM.

Turning to `Cc1c(-c2ccccc2)cccc1N1Cc2ccc(CNCCO)cc2C1=O`, the half-inhibitory concentration (IC50) in data set [1] worked out at 9380 nM.

`O=C(c1ccc(CNCCO)cc1)N1CCc2c(-c3ccccc3)cccc21` displayed an IC50 in data set [1] of 192 nM. Moreover, the Activity result in the data set on Jurkat is given as “Toxic”.

As to `COc1cc(C(=O)N2CCc3c(-c4ccccc4)cccc32)ccc1CNCCO`, the EC50 with Jurkat amounted to 44700 nM. For the same compound, in data set [2], the inhibition result is “Dose-dependent effect”. Also, the Activity in data set [3] came to 610%. Also, the fold change (FC) in data set [4] came to 3.21.

For `CC(=O)NCCNCc1ccc2c(c1)C(=O)N(c1cccc(-c3ccccc3)c1C)C2`, the IC50 in data set [1] is more than 10000 nM. Still for that read-out and setting: the result for `CC(=O)NCCNCc1ccc2c(c1)CN(c1cccc(-c3ccccc3)c1C)C2=O` reads more than 10000 nM. Consider `COc1cc(C(=O)N2CCc3c(-c4ccccc4)cccc32)cc(OC)c1CNCCO`, for which the 50% inhibitory concentration (IC50) in data set [1] amounted to 4770 nM.

On to `N#Cc1cccc(COc2cc(C(=O)N3CCc4c(-c5ccccc5)cccc43)ccc2CN[C@H](CO)C(=O)O)c1`, for which, in data set [1], the midpoint of inhibition, the IC50, lay at 3280 nM. `N#Cc1cccc(COc2cc(C(=O)N3CCc4c(-c5ccccc5)cccc43)ccc2CNCCO)c1`: half-maximal inhibition in data set [1] (IC50) was put at 572 nM. Consider `Cc1cc(C(=O)N2CCc3c(-c4ccccc4)cccc32)ccc1CNCCO`, for which the IC50 in data set [1] worked out at 212 nM. The Activity result with Jurkat is listed as “Toxic”.

In the case of `N#Cc1cccc(COc2cc(C(=O)N3CCc4c(-c5ccccc5)cccc43)ccc2CN2CCCC[C@H]2C(=O)O)c1`, in data set [1], 1330 nM corresponded to half-maximal inhibition (IC50). On the same count and under the same terms, next, `O=C(c1ccc(CNCCO)c(O)c1)N1CCc2c(-c3ccccc3)cccc21`: 304 nM.

Turning to `COc1cc(C(=O)N2CCc3c(-c4ccccc4)cccc32)ccc1CNCCNC(C)=O`, the concentration for half-maximal inhibition (IC50) in data set [1] is 220 nM. Moreover, the concentration giving a half-maximal response (EC50) in the data set with Jurkat came to 39800 nM. The inhibition entry in data set [2] was “Dose-dependent effect”. In data set [1], `COc1cc(C(=O)N2CCc3c(-c4ccccc4)cccc32)ccc1CN1CCC[C@H]1C(=O)O` came in with a half-maximal inhibitory concentration (IC50) of 1890 nM.

In data set [1], `O=C(c1cccc(CNCCO)c1)N1CCc2c(-c3ccccc3)cccc21` returned a half-inhibitory concentration (IC50) of 344 nM. Compound `Cc1c(-c2ccccc2)cccc1N1Cc2cc(CNCCO)ccc2C1=O` displayed a half-inhibitory concentration (IC50) in data set [1] of 7290 nM.

Broadly, the IC50 is the concentration at which inhibition is half-maximal. Broadly, the EC50 is the concentration that produces a half-maximal response.
